Measured values from the supplement of paper PMC10307832.

Key:
Assay in all cases: relative viability (nuclei count vs DMSO), 5 days (fraction); higher = more cells survive
[1] = compound: O=C(Nc1cccc(C(F)(F)F)c1)Nc1cc(S(=O)(=O)NC2CC2)ccc1-c1ccsc1 [AGI-6780] + CC(C)C[C@H](NC(=O)[C@H](Cc1ccccc1)NC(=O)c1cnccn1)B(O)O [Bortezomib] (partner 0.002 µM)
Outline: (§1)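 After 5 days of treatment, lung cancer cells in 1536-well plates were fixed and stained in a single step (final 0.05% Triton X-100, 1% formaldehyde, 1 ug/ml Hoechst) and their nuclei counted on 4× images. Treatment had been applied by pin tool the day after seeding as one drug alone or as a fixed anchor-drug dose with five library-drug doses (not always all listed) in √10 steps. Relative viability is the nuclei count of treated wells divided by that of vehicle wells, and values are medians of duplicate plates.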

[2] = compound: O=C(Nc1cccc(C(F)(F)F)c1)Nc1cc(S(=O)(=O)NC2CC2)ccc1-c1ccsc1 [AGI-6780] + CCNC(=O)c1noc(-c2cc(C(C)C)c(O)cc2O)c1-c1ccc(CN2CCOCC2)cc1 [Luminespib] (partner 0.01 µM)
Outline: as §1

[3] = compound: O=C(Nc1cccc(C(F)(F)F)c1)Nc1cc(S(=O)(=O)NC2CC2)ccc1-c1ccsc1 [AGI-6780] + CC(=O)c1c(C)c2cnc(Nc3ccc(N4CCNCC4)cn3)nc2n(C2CCCC2)c1=O [Palbociclib] (partner 0.5 µM)
Outline: as §1

[4] = compound: O=C(Nc1cccc(C(F)(F)F)c1)Nc1cc(S(=O)(=O)NC2CC2)ccc1-c1ccsc1 [AGI-6780] + Cc1nc(Nc2ncc(C(=O)Nc3c(C)cccc3Cl)s2)cc(N2CCN(CCO)CC2)n1 [Dasatinib] (partner 0.075 µM)
Outline: as §1

Row | Cell Line | relative viability ([1]; first compound 0.08 µM) | relative viability ([1]; first compound 0.253 µM) | relative viability ([1]; first compound 0.8 µM) | relative viability ([1]; first compound 2.53 µM) | relative viability ([1]; first compound 8 µM) | relative viability ([2]; first compound 0.08 µM) | relative viability ([2]; first compound 0.253 µM) | relative viability ([2]; first compound 0.8 µM) | relative viability ([2]; first compound 2.53 µM) | relative viability ([2]; first compound 8 µM) | relative viability ([3]; first compound 0.08 µM) | relative viability ([3]; first compound 0.253 µM) | relative viability ([3]; first compound 0.8 µM) | relative viability ([3]; first compound 2.53 µM) | relative viability ([3]; first compound 8 µM) | relative viability ([4]; first compound 0.08 µM) | relative viability ([4]; first compound 0.253 µM) | relative viability ([4]; first compound 0.8 µM) | relative viability ([4]; first compound 2.53 µM) | relative viability ([4]; first compound 8 µM)
1 | NCI-H2087 | 0.824 | 0.958 | 0.77 | 0.997 | 0.879 | 0.203 | 0.141 | 0.181 | 0.155 | 0.175 | 0.244 | 0.265 | 0.221 | 0.25 | 0.245 | 0.843 | 0.866 | 0.888 | 0.852 | 0.838
2 | RERF-LC-KJ | 1.06 | 1.16 | 1.15 | 0.798 | 1.09 | 1.25 | 1.17 | 1.33 | 1.16 | 1.17 | 1.06 | 1.09 | 1.07 | 0.93 | 1.01 | 0.895 | 0.93 | 0.822 | 0.511 | 0.667
3 | NCI-H2342 | – | – | – | – | – | 0.604 | 0.68 | 0.679 | 0.552 | 1.09 | 0.506 | 0.504 | 0.509 | 0.478 | 0.548 | 0.3 | 0.369 | 0.34 | 0.302 | 0.317
4 | A-427 | 1.13 | 1.02 | 1.06 | 0.917 | 0.991 | 0.943 | 0.717 | 0.882 | 0.802 | 0.97 | – | 0.504 | 0.548 | 0.462 | 0.491 | 0.696 | 0.66 | 0.759 | 0.582 | 0.668
5 | HARA | 1.24 | 1.09 | 0.948 | 1.19 | 1.16 | 0.787 | 0.594 | 0.177 | 0.944 | 0.93 | 0.235 | 0.271 | 0.167 | 0.257 | 0.278 | 0.229 | 0.278 | 0.259 | 0.179 | 0.233
6 | HCC-78 | 0.479 | 0.432 | 0.739 | 0.626 | 0.581 | – | – | – | – | – | 0.457 | 0.395 | 0.443 | 0.42 | 0.458 | – | 0.388 | 0.433 | 0.364 | 0.351
7 | NCI-H1755 | 1.01 | 0.98 | 0.967 | 0.83 | 1.01 | 0.37 | 0.49 | 0.518 | 0.304 | 0.42 | 0.452 | 0.463 | 0.426 | 0.433 | 0.419 | 0.479 | 0.502 | 0.456 | 0.351 | 0.422
8 | NCI-H23 | 1.08 | 1.2 | 1.02 | 0.86 | 1.19 | – | 0.202 | 0.231 | – | 0.205 | 0.437 | 0.528 | 0.457 | 0.394 | 0.541 | 0.922 | 0.701 | 0.752 | 0.378 | 0.735
9 | ABC-1 | 0.295 | 0.35 | 0.335 | 0.262 | 0.378 | 0.58 | 0.447 | 0.63 | 0.821 | 0.408 | – | 0.666 | 0.846 | 0.608 | 0.905 | 0.589 | 0.57 | 0.632 | 0.553 | 0.712
10 | Calu-6 | 1.12 | 0.976 | 1.02 | 1.12 | 0.972 | – | – | – | – | – | – | – | – | – | – | – | – | – | – | –
11 | NCI-H838 | 0.965 | 0.692 | 0.952 | 1.05 | 1.18 | 0.374 | 0.353 | 0.339 | 0.303 | 0.274 | 0.252 | 0.267 | 0.221 | 0.218 | 0.224 | 0.312 | 0.357 | 0.307 | 0.261 | 0.321
12 | NCI-H1563 | 1 | 0.918 | 0.843 | 0.75 | 0.824 | 0.585 | 0.537 | 0.577 | 0.492 | 0.542 | – | – | – | – | – | 0.51 | 0.51 | 0.459 | 0.459 | 0.459
13 | NCI-H596 | – | 1.04 | 0.761 | 0.918 | 1.13 | 1 | 0.995 | 0.982 | – | 1.09 | – | – | – | – | – | 0.582 | 0.583 | 0.624 | – | 0.665
14 | NCI-H358 | – | – | – | – | – | 0.37 | 0.255 | 0.424 | 0.204 | 0.439 | 0.129 | 0.131 | 0.119 | 0.138 | 0.154 | 0.184 | 0.175 | 0.17 | 0.151 | 0.197
15 | EBC-1 | 0.781 | 0.566 | 0.485 | 0.601 | 0.529 | – | – | – | – | – | – | – | – | – | – | – | – | – | – | –
16 | SK-MES-1 | – | – | – | – | – | 0.716 | 0.714 | 0.798 | 0.677 | 0.801 | 0.31 | 0.346 | 0.27 | 0.285 | 0.294 | 0.379 | 0.428 | 0.367 | 0.24 | 0.338
17 | HCC-366 | 1.1 | 1.06 | 1.03 | 1.02 | 1.11 | – | – | – | – | – | 0.369 | 0.388 | 0.41 | 0.29 | 0.405 | 0.678 | 0.608 | 0.684 | 0.245 | 0.556
18 | NCI-H1944 | – | – | – | – | – | 0.814 | 0.711 | 0.709 | – | 0.768 | 0.365 | 0.331 | 0.32 | – | 0.403 | 0.239 | 0.232 | 0.233 | – | 0.233
19 | NCI-H1299 | 1.06 | 1.03 | 0.944 | 1.02 | 1.03 | – | – | – | – | – | – | – | – | – | – | – | – | – | – | –
20 | NCI-H1395 | – | – | – | – | – | 1.02 | 0.78 | 0.73 | 0.646 | 0.615 | 0.629 | 0.603 | 0.616 | 0.572 | 0.656 | 0.403 | 0.478 | 0.428 | 0.36 | 0.376
21 | NCI-H2170 | – | – | – | – | – | 0.603 | 0.729 | 0.682 | 0.403 | 0.719 | 0.393 | 0.421 | 0.43 | – | 0.376 | 0.585 | 0.713 | 0.579 | 0.499 | 0.59
